# From patent US9737498B2, “Method for treating an inflammation or lesion caused by a virus” (priority 2001, dated 2017)
# Read-outs that look alike come from different tables or passages of the source.
# Tests used:
# [1] = tested on: Herpes simplex virus 1 (HSV-1); test: Growth inhibition of HSV-1 in vitro (Vero cells, cytopathic effect / plaques); format: cell-based; conditions: for Upper pH limit at which HSV-1 is inactivated by the alcohol: alcohol 0.2% by volume, pH adjusted with HCl, tested pH 4.0 to 6.8 at increments of 0.2, incubated with the virus for 2 minutes; for Virus growth (HSV-1): pH 3.5 (HCl)
# [2] = tested on: "enveloped" viruses (herpesvirus, orthomyxovirus and rhabdovirus (Rabies virus)); conditions: room temperature, aqueous solutions of pure acids; cited from earlier work
# [3] = tested on: naked viruses (e.g., poliovirus type 1); conditions: alcohol alone; cited from earlier work
# [4] = tested on: VSV (a lipid-coated virus); conditions: cited from earlier work
# rhinoviruses = conditions: foams; cited from earlier work
compound,measurement,setting,value
"CCC(O)CO (stereo not drawn) [1,2-butanediol]",Upper pH limit at which HSV-1 is inactivated by the alcohol,[1],4.2
"CC(O)C(C)O (stereo not drawn) [2,3-butanediol]",Upper pH limit at which HSV-1 is inactivated by the alcohol,[1],4.6
O=C(O)CC(O)(CC(=O)O)C(=O)O [citric acid],Effectiveness in vitro against enveloped viruses,[2],effective
CCO [ethanol],Activity against naked viruses,[3],did not exhibit sufficient activities
same,Virucidal activity against VSV,"[4]; pH of about 4 to 5 at 4° C., aqueous solution of biologically active protein",fairly inactive
same,Virus growth (HSV-1),"[1]; 1.0% ethanol, 5 minute exposure, diluted 1/16 with Eagles medium",+
same,Virus growth (HSV-1),"[1]; 1.0% ethanol, 5 minute exposure, diluted 1/64 with Eagles medium",+
same,Virus growth (HSV-1),"[1]; 1.0% ethanol, 5 minute exposure, diluted ¼ with Eagles medium",+
same,Virus growth (HSV-1),"[1]; 1.0% ethanol, 5 minute exposure, undiluted",+
same,Virus growth (HSV-1),"[1]; 1.0% ethanol, 10 minute exposure, diluted 1/16 with Eagles medium",+
same,Virus growth (HSV-1),"[1]; 1.0% ethanol, 10 minute exposure, diluted 1/64 with Eagles medium",+
same,Virus growth (HSV-1),"[1]; 1.0% ethanol, 10 minute exposure, diluted ¼ with Eagles medium",+
same,Virus growth (HSV-1),"[1]; 1.0% ethanol, 10 minute exposure, undiluted",−
same,Inhibition of growth of the virus (HSV-1),"[1]; 2.5% ethanol solution diluted by ¼, pH 3.5, exposure time 10 minutes",effectively inhibited growth of the virus
same,Virus growth (HSV-1),"[1]; 2.5% ethanol, 5 minute exposure, diluted 1/16 with Eagles medium",+
same,Virus growth (HSV-1),"[1]; 2.5% ethanol, 5 minute exposure, diluted 1/64 with Eagles medium",+
same,Virus growth (HSV-1),"[1]; 2.5% ethanol, 5 minute exposure, diluted ¼ with Eagles medium",+
same,Virus growth (HSV-1),"[1]; 2.5% ethanol, 5 minute exposure, undiluted",+
same,Virus growth (HSV-1),"[1]; 2.5% ethanol, 10 minute exposure, diluted 1/16 with Eagles medium",+
same,Virus growth (HSV-1),"[1]; 2.5% ethanol, 10 minute exposure, diluted 1/64 with Eagles medium",+
same,Virus growth (HSV-1),"[1]; 2.5% ethanol, 10 minute exposure, diluted ¼ with Eagles medium",−
same,Virus growth (HSV-1),"[1]; 2.5% ethanol, 10 minute exposure, undiluted",−
same,Virus growth (HSV-1),"[1]; 5.0% ethanol, 5 minute exposure, diluted 1/16 with Eagles medium",+
same,Virus growth (HSV-1),"[1]; 5.0% ethanol, 5 minute exposure, diluted 1/64 with Eagles medium",+
same,Virus growth (HSV-1),"[1]; 5.0% ethanol, 5 minute exposure, diluted ¼ with Eagles medium",+
same,Virus growth (HSV-1),"[1]; 5.0% ethanol, 5 minute exposure, undiluted",+
same,Virus growth (HSV-1),"[1]; 5.0% ethanol, 10 minute exposure, diluted 1/16 with Eagles medium",+
same,Virus growth (HSV-1),"[1]; 5.0% ethanol, 10 minute exposure, diluted 1/64 with Eagles medium",+
same,Virus growth (HSV-1),"[1]; 5.0% ethanol, 10 minute exposure, diluted ¼ with Eagles medium",−
same,Virus growth (HSV-1),"[1]; 5.0% ethanol, 10 minute exposure, undiluted",−
same,Virus growth (HSV-1),"[1]; 10% ethanol, 5 minute exposure, diluted 1/16 with Eagles medium",+
same,Virus growth (HSV-1),"[1]; 10% ethanol, 5 minute exposure, diluted 1/64 with Eagles medium",+
same,Virus growth (HSV-1),"[1]; 10% ethanol, 5 minute exposure, diluted ¼ with Eagles medium",+
same,Virus growth (HSV-1),"[1]; 10% ethanol, 5 minute exposure, undiluted",+
same,Virus growth (HSV-1),"[1]; 10% ethanol, 10 minute exposure, diluted 1/16 with Eagles medium",+
same,Virus growth (HSV-1),"[1]; 10% ethanol, 10 minute exposure, diluted 1/64 with Eagles medium",+
same,Virus growth (HSV-1),"[1]; 10% ethanol, 10 minute exposure, diluted ¼ with Eagles medium",−
same,Virus growth (HSV-1),"[1]; 10% ethanol, 10 minute exposure, undiluted",−
same,Inhibition of the virus (HSV-1),"[1]; 12.5% ethanol solution, pH 3.5, exposure time of five minutes",inhibited the virus
same,Virus growth (HSV-1),"[1]; 12.5% ethanol, 5 minute exposure, diluted 1/16 with Eagles medium",+
same,Virus growth (HSV-1),"[1]; 12.5% ethanol, 5 minute exposure, diluted 1/64 with Eagles medium",+
same,Virus growth (HSV-1),"[1]; 12.5% ethanol, 5 minute exposure, diluted ¼ with Eagles medium",−
same,Virus growth (HSV-1),"[1]; 12.5% ethanol, 5 minute exposure, undiluted",−
same,Virus growth (HSV-1),"[1]; 12.5% ethanol, 10 minute exposure, diluted 1/16 with Eagles medium",−
same,Virus growth (HSV-1),"[1]; 12.5% ethanol, 10 minute exposure, diluted 1/64 with Eagles medium",+
same,Virus growth (HSV-1),"[1]; 12.5% ethanol, 10 minute exposure, diluted ¼ with Eagles medium",−
same,Virus growth (HSV-1),"[1]; 12.5% ethanol, 10 minute exposure, undiluted",−
same,Upper pH limit at which HSV-1 is inactivated by the alcohol,[1],4.4
same,Effectiveness in killing rhinoviruses,rhinoviruses,not effective
O=C(O)CO [glycolic acid],Virus growth at sample dilution (HSV-1),"[1]; aqueous acid solution pH 3.8, exposure of 4 minutes, dilution 1/16",−
same,Virus growth at sample dilution (HSV-1),"[1]; aqueous acid solution pH 3.8, exposure of 4 minutes, dilution 1/64",−
same,Virus growth at sample dilution (HSV-1),"[1]; aqueous acid solution pH 3.8, exposure of 4 minutes, dilution ¼",−
same,Virus growth at sample dilution (HSV-1),"[1]; aqueous acid solution pH 3.8, exposure of 4 minutes, undiluted",−
same,Virus growth at sample dilution (HSV-1),"[1]; aqueous acid solution pH 4.0, exposure of 4 minutes, dilution 1/16",+
same,Virus growth at sample dilution (HSV-1),"[1]; aqueous acid solution pH 4.0, exposure of 4 minutes, dilution 1/64",+
same,Virus growth at sample dilution (HSV-1),"[1]; aqueous acid solution pH 4.0, exposure of 4 minutes, dilution ¼",+
same,Virus growth at sample dilution (HSV-1),"[1]; aqueous acid solution pH 4.0, exposure of 4 minutes, undiluted",+
same,Virus growth at sample dilution (HSV-1),"[1]; aqueous acid solution pH 4.2, exposure of 4 minutes, dilution 1/16",+
same,Virus growth at sample dilution (HSV-1),"[1]; aqueous acid solution pH 4.2, exposure of 4 minutes, dilution 1/64",+
same,Virus growth at sample dilution (HSV-1),"[1]; aqueous acid solution pH 4.2, exposure of 4 minutes, dilution ¼",+
same,Virus growth at sample dilution (HSV-1),"[1]; aqueous acid solution pH 4.2, exposure of 4 minutes, undiluted",−
same,Virus growth at sample dilution (HSV-1),"[1]; aqueous acid solution pH 6.0, exposure of 4 minutes, dilution 1/16",+
same,Virus growth at sample dilution (HSV-1),"[1]; aqueous acid solution pH 6.0, exposure of 4 minutes, dilution 1/64",+
same,Virus growth at sample dilution (HSV-1),"[1]; aqueous acid solution pH 6.0, exposure of 4 minutes, dilution ¼",+
same,Virus growth at sample dilution (HSV-1),"[1]; aqueous acid solution pH 6.0, exposure of 4 minutes, undiluted",+
O=C(O)CC(O)C(=O)O (stereo not drawn) [malic acid],Effectiveness in vitro against enveloped viruses,[2],effective
CO [methanol],Upper pH limit at which HSV-1 is inactivated by the alcohol,[1],4.6
CCCCO [n-butanol],Upper pH limit at which HSV-1 is inactivated by the alcohol,[1],4.6
"CCCO [propanol, reference compound]",Activity against naked viruses,[3],did not exhibit sufficient activities
CC(=O)C(=O)O [pyruvic acid],Effectiveness in vitro against enveloped viruses,[2],effective
O=C(O)CCC(=O)O [succinic acid],Effectiveness in vitro against enveloped viruses,[2],effective
butanol [reference compound],Virucidal activity against VSV,[4],fairly inactive
